Consider one compound from patent US6482921B1, “Uridyl peptide antibiotic (UPA) derivatives, their synthesis and use” (Essential Therapeutics, Inc., priority 1999, dated 2002).

Common to all, as to type: cell-based
Assay [1] concerns Mycobacterium tuberculosis H37Rv. As to the kind of experiment: MIC agar dilution, M. tuberculosis H37Rv. For orientation: In agar dilution, organisms are placed on agar that contains the substance at set levels.
Assay [2] has as its system Pseudomonas aeruginosa PAM 1323. As to the kind of experiment: MIC broth microdilution, P. aeruginosa PAM 1323 (medium level UPA resistance). A general note: In broth dilution the organism is exposed to a series of concentrations in liquid medium.
For assay [3], the system named is Escherichia Coli MC 4100 AcrAB. Kind of assay: MIC broth microdilution, E. coli MC 4100 AcrAB (ΔAcrAB). The note with it: E. coli AcrAB.
The subject of assay [4] is Pseudomonas aeruginosa PAM 1020. As to the kind of experiment: MIC broth microdilution, P. aeruginosa PAM 1020 (wild type). The note with it: P. aeruginosa PAM 1020.
Assay [5] deals with Pseudomonas aeruginosa PAM 1135. As to the kind of experiment: MIC broth microdilution, P. aeruginosa PAM 1135 (high level UPA resistance). The note with it: P. aeruginosa PAM 1135 UPA1^r.
Assay [6] relates to Staphylococcus aureus 8325-4. As to the kind of experiment: MIC broth microdilution, S. aureus 8325-4 (wild type). The note with it: S. aureus 8325-4.
The test system of assay [7] is Pseudomonas aeruginosa PAM 1154. Kind of assay: MIC broth microdilution, P. aeruginosa PAM 1154 (OprM::Hg). The note with it: P. aeruginosa PAM 1154 OprM::Hg.
The test system of assay [8] is Haemophilus influenzae hf032. As to the kind of experiment: MIC broth microdilution, H. influenzae hf032. The note with it: strain hf032, Haemophilus test medium. The protocol:
(§1) In a second panel, Table 5, compounds of this invention were tested for their antimicrobial activity against the bacterial strains H. influenzae hf032 and S. pneumoniae ATCC 49629.
(§2) As above, a broth microdilution assay was used but the culture media were varied according to the specific growth requirements of each bacteria according to the recommendations of the NCCLS. For instance, susceptibility testing for H, influenzae was performed using Haemophilus test medium (HTM-Remel, cat. #20-042). For S. pneumoniae, cation adjusted MHB (CAMHB) containing 4% lysed horse blood was used. MICs were determined as described above.

In assay [9] the test system is Escherichia Coli MC 4100 AcrAB UPA3r. As to the kind of experiment: MIC broth microdilution, E. coli MC 4100 AcrAB UPA3r (ΔAcrAB, UPA resistant). The note with it: E. coli AcrAB UPA3^r.
In assay [10] the test system is Mycobacterium tuberculosis TN913. As to the kind of experiment: MIC agar dilution, M. tuberculosis TN913.
In the next assay the test system is Escherichia Coli MC 4100. Kind of assay: MIC broth microdilution, E. coli MC 4100 (wild type). The note with it: E. coli MC 4100.
Assay [11] concerns Streptococcus pneumoniae ATCC 49619. Kind of assay: MIC broth microdilution, S. pneumoniae ATCC 49619. The note with it: ATCC 49619, CAMHB containing 4% lysed horse blood. The protocol: as §1, §2
Assay [12] concerns Staphylococcus aureus ATCC 29213. Kind of assay: MIC broth microdilution, S. aureus ATCC 29213 (wild type). The note with it: S. aureus ATCC 29213.
Assay [13] has as its system Pasteurella multocida pm002. Kind of assay: MIC broth microdilution, P. multocida pm002 (wild type).

≈ marks a conversion by molar mass, not a printed value.

Turning to `CSCCC(NC(=O)NC(Cc1ccc(O)cc1)C(=O)O)C(=O)NC(C(=O)NCC1CC(O)C(n2ccc(=O)[nH]c2=O)O1)C(C)N(C)C(=O)C(C)N` [Compound 115, 1-[5′[(2S,3S)-N^3-L-Alanyl-N^2-[N-[[(1S)-1-carboxy-4-hydroxyphenethyl)-carbamoyl]-L-methionyl]-N^3-methyl-2,3-diaminobutyramido]-3′,5′-dideoxy-α-L-arabinofuranosyl]uracil], in assay [1], the “MIC H37RV (SENSITIVE)” value was above 30 µg/mL. The “MIC (μg/ml) Broth microdilution” value is 256 µg/mL (≈ 341 µM) in assay [2]; 8 µg/mL (≈ 10.7 µM) in assay [3]; 4 µg/mL (≈ 5.33 µM) in [4]; above 512 µg/mL in assay [5]; above 512 µg/mL in assay [6]; 2 µg/mL (≈ 2.66 µM) in assay [7]. The “MIC (μg/ml) Broth microdilution” value in [9] was 32 µg/mL (≈ 42.6 µM); in the assay with Escherichia Coli MC 4100 it was above 512 µg/mL; in assay [12] it was above 512 µg/mL; in assay [13] it was 128 µg/mL (≈ 170 µM). In addition, the “MIC Broth microdilution H. influenzae” value in assay [8] is 16 µg/mL (≈ 21.3 µM). Further, the “MIC TN913 (SENSITIVE)” value in [10] was above 30 µg/mL. Besides, the “MIC Broth microdilution S. pneumoniae” value in assay [11] was above 512 µg/mL.
